Like-named read-outs stand apart in the source and are kept apart here.

In test [1] the test system is cleaved caspase 3, cleaved PARP 1, Bax, Bcl2. The conditions noted are these: FOLFOX-HCT116 cells, different concentrations, 24 h.
Test [2] concerns the target Chk1 (Homo sapiens, UniProt O14757). The conditions noted are these: in vitro Chk1 kinase assay, purified Chk1 protein.
The test system of test [3] is cleaved caspase 3, cleaved PARP 1, Bax, Bcl2. The conditions noted are these: FOLFOX-HT29 cells, different concentrations, 24 h.
The test system of test [4] is Chk1 phosphorylation. The conditions noted are these: FOLFOX-HT29 cells, different concentrations, 24 h.
Test [5] concerns Chk1 phosphorylation. The conditions noted are these: HCT116 cells.
Test [6] deals with γH2AX. The conditions noted are these: HCT-116 cells, 7b (5, 10 and 20 μM), 24 h.
In test [7] the test system is HCT116 cells. The conditions noted are these: 25 μM 5-FU alone.

Chain of Chk1 (O14757 whole entry): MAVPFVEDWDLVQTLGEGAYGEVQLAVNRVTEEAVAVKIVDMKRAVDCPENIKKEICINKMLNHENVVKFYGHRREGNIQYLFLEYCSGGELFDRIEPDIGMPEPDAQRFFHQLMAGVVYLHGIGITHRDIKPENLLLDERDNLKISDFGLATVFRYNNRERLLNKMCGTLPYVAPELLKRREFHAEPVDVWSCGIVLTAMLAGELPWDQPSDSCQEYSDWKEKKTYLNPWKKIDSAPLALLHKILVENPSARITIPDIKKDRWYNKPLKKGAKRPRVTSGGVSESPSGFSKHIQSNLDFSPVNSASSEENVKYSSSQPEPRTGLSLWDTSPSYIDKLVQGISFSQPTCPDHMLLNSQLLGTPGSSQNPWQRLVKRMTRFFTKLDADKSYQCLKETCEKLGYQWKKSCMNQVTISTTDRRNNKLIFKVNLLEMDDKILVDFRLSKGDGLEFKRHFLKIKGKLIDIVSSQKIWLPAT

For the compound `ClC/C=C/C[N+]12CN3CN(CN(C3)C1)C2.[Cl-]` [Compound 7a, 1-(4-Chloro-but-2-enyl)-3,5,7-triaza-1-azonia-tricyclo[3.3.1.1^3,7]decane; chloride], the “Levels of cleaved caspase 3 and PARP1” value in test [1] and in test [3] was “increased levels” in each case. Also, the “Inhibition of Chk1 activity in a reconstituted purified system” value in test [2] is on record as “do not inhibit”. In addition, the “Chk1(S345P) phosphorylation” value in test [4] is recorded as “increase”.
Consider `NC(=O)NO` [HU, hydroxyurea, reference compound], for which the “Phosphorylation of Chk1(S317P), Chk1(S345P) and Chk1(S296P)” value in test [5] (1 mM HU alone) is listed as “high level phosphorylation”.
Regarding “1-(3-Phenyl-allyl)-3,5,7-triaza-1-azonia-tricyclo[3.3.1.1^3,7]decane; chloride [Compound 7b]”, the “γH2AX-foci, compound alone” value in test [6] is recorded as “increased γH2AX-foci”. Also, the “Levels of cleaved caspase 3 and PARP1” value in test [1] and in test [3] was “increased levels” in each case. In test [5] (1 mM HU for 24 h followed by 20 μM 7b for additional 8 h), the “HU-induced phosphorylation of Chk1(S317P), Chk1(S345P) and Chk1(S296P)” value was “reduced after combination treatment”. Besides, in test [4], the “Chk1(S345P) phosphorylation” value is recorded as “increase”.
Regarding `O=c1[nH]cc(F)c(=O)[nH]1` [Compound 5-FU, 5-fluorouracil], the Cell cycle profile entry in test [7] is on record as “S phase arrest”.

The record behind these values is paper PMC7115410 (European Journal of Medicinal Chemistry, 2018).
